Experimental data as given in US7491825B2, “Basic non-peptide bradykinin antagonists and pharmaceutical compositions therefrom” (Menarini Ricerche S.p.A., priority 2002, dated 2009).
Where a name gives a salt, the structure may show the parent alone.

Each molecule was assayed against T1, human B2 receptor (Homo sapiens, UniProt P30411) (assay: binding to the human B2 receptor expressed in human fibroblasts W138). Conditions: not given.
T1 construct: human B2 receptor expressed in human fibroblasts W138; endogenous in cells; host or cells: human fibroblasts W138 (WI-38)
T1 sequence (P30411 1-391): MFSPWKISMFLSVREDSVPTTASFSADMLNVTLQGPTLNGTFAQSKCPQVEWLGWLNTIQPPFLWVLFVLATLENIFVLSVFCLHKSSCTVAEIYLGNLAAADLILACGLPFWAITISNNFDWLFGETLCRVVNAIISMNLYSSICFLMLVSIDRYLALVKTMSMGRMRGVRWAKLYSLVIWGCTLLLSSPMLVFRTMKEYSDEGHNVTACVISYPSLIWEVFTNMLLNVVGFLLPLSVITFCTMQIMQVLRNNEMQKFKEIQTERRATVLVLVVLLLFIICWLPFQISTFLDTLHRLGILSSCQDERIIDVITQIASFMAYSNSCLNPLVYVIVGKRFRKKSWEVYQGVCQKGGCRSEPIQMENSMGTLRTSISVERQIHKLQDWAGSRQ
Description: In the following the binding values are reported expressed as pKi.

| Molecule | Ki [nM] |
| --- | --- |
| Cc1cc(C)c2cccc(OCc3c(Cl)ccc(S(=O)(=O)NC4(C(=O)N5CCC(C[N+](C)(C)CCCCC[N+](C)(C)C)CC5)CCCC4)c3Cl)c2n1 [Example 86, {5-[(1-{1-[2,4-Dichloro-3-(2,4-dimethyl-quinolin-8-yloxymethyl)-benzensulfonylamino]-cyclopentanecarbonyl}-piperidin-4-ylmethyl)-dimethyl-ammonium]-pentyl}-trimethyl-ammonium tris trifluoroacetate] | 0.398 |
| Cc1cc(C)c2cccc(OCc3c(Cl)ccc(S(=O)(=O)NC4(C(=O)N5CCN(C(=N)NCCCCCCN)CC5)CCCC4)c3Cl)c2n1 [Example 95, N-(6-Amino-hexyl)-4-{1-[2,4-dichloro-3-(2,4-dimethyl-quinolin-8-yloxymethyl)-benzenesulfonylamino]-cyclopentanecarbonyl}-piperazine-1-carboxamidine bis trifluoroacetate] | 0.501 |

Same assay, conditions: human B2 receptor expressed in human fibroblasts W138

| Molecule | pKi |
| --- | --- |
| Cc1cc(C)c2cccc(OCc3c(Cl)ccc(S(=O)(=O)NC4(C(=O)N5CCN(C(=O)C[C@H](CCCNC(=NC6CCCCC6)NC6CCCCC6)NC(=NC6CCCCC6)NC6CCCCC6)CC5)CCCC4)c3Cl)c2n1.O=C(O)C(F)(F)F.O=C(O)C(F)(F)F.O=C(O)C(F)(F)F [Example 80, N-(1-{4-[3-(S),6-Bis-(N′,N″-dicyclohexyl-guanidino)-hexaoyl]-piperazine-1-carbonyl}-cyclopentyl)-2,4-dichloro-3-(2,4-dimethyl-quinolin-8-yloxymethyl)-benzensulfonamide tris trifluoroacetate] | 9.2 |
| Cc1cc(C)c2cccc(OCc3c(Cl)ccc(S(=O)(=O)NC4(C(=O)N5CCN(C(=O)CCC[N+](C)(C)C)CC5)CCCC4)c3Cl)c2n1 [Example 83, N-{1-[4-(4-Trimethylammonium-butanoyl)-piperazine-1-carbonyl]-cyclopentyl}-2,4-dichloro-3-(2,4-dimethyl-quinolin-8-yloxymethyl)-benzenesulfonamide bis trifluoroacetate] | 9.4 |
| Cc1cc(C)c2cccc(OCc3c(Cl)ccc(S(=O)(=O)NC4(C(=O)N5CCN(C(=O)[C@H](CCCCN)[N+](C)(C)C)CC5)CCCC4)c3Cl)c2n1 [Example 90, N-[1-[4-(2-(S)-Trimethylammonium-6-amino-hexanoyl)-piperazin-1-yl]-cyclopentyl]-2,4-dichloro-3-(2,4-dimethyl-quinolin-8-yloxymethyl)-benzenesulfonamide tris trifluoroacetate] | 9.9 |
| Cc1cc(C)c2cccc(OCc3c(Cl)ccc(S(=O)(=O)NC4(C(=O)N5CCN(C(=O)CCCCC[N+](C)(C)C)CC5)CCCC4)c3Cl)c2n1 [Example 91, N-{1-[4-(6-Trimethylammonium-hexanoyl)-piperazine-1-carbonyl]-cyclopentyl}-2,4-dichloro-3-(2,4-dimethyl-quinolin-8-yloxymethyl)-benzenesulfonamide bis trifluoroacetate] | 9.3 |
| Cc1cc(C)c2cccc(OCc3c(Cl)ccc(S(=O)(=O)NC4(C(=O)N5CCN(C(=O)C[C@@H](N)CCC[N+](C)(C)C)CC5)CCCC4)c3Cl)c2n1.Cc1cc(C)c2cccc(OCc3c(Cl)ccc(S(=O)(=O)NC4(C(=O)N5CCN(C(=O)C[C@@H](N)CCC[N+](C)(C)C)CC5)CCCC4)c3Cl)c2n1.O=C([O-])C(F)(F)F.O=C([O-])C(F)(F)F [Example 107, [4-(S)-Amino-6-(4-{1-[2,4-dichloro-3-(2,4-dimethyl-quinolin-8-yloxymethyl)-benzenesulfonylamino]-cyclopentanecarbonyl}-piperazin-1-yl)-6-oxohexyl]-trimethylammonium bis trifluoroacetate] | 9.7 |
| N-[1-[4-(2-(S)-Dimethylamino-6-dimethylamino-hexanoyl)-piperazin-1-yl]-cyclopentyl]-2,4-dichloro-3-(2,4-dimethyl-quinolin-8-yloxymethyl)-benzenesulfonamide tris trifluoroacetate [Example 85] | 9.3 |
| N-[1-[4-(2-(S)-Trimethylammonium-6-trimethylammonium-hexanoyl)-piperazin-1-yl]-cyclopentyl]-2,4-dichloro-3-(2,4-dimethyl-quinolin-8-yloxymethyl)-benzenesulfonamide tris trifluoroacetate [Example 88] | 9.7 |

Same assay, conditions: human B2 receptor expressed in human fibroblasts W138; read-out: pKi (converted)

| Molecule | Ki [nM] |
| --- | --- |
| Cc1cc(C)c2cccc(OCc3c(Cl)ccc(S(=O)(=O)NC4(C(=O)N5CCN(C(=O)[C@@H](N)CC6CCNCC6)CC5)CCCC4)c3Cl)c2n1 [Example 81, N-{1-[4-(2-(S)Amino-3-piperidin-4-yl-propionyl)-piperazine-1-carbonyl]-cyclopentyl}-2,4-dichloro-3-(2,4-dimethyl-quinolin-8-yloxymethyl)-benzenesulfonamide tris trifluoroacetate] | 0.631 |
| Cc1cc(C)c2cccc(OCc3c(Cl)ccc(S(=O)(=O)NC4(C(=O)N5CCN(C(=O)C[N+](C)(C)C)CC5)CCCC4)c3Cl)c2n1 [Example 82, N-{1-[4-(2-Trimethylammonium-acetyl)-piperazine-1-carbonyl]-cyclopentyl}-2,4-dichloro-3-(2,4-dimethyl-quinolin-8-yloxymethyl)-benzenesulfonamide bis trifluoroacetate] | 0.631 |
| Cc1cc(C)c2cccc(OCc3c(Cl)ccc(S(=O)(=O)NC4(C(=O)N5CCN(C(=O)C[C@@H](O)C[N+](C)(C)C)CC5)CCCC4)c3Cl)c2n1 [Example 84, N-{1-[4-(3(R)-Hydroxy-4-trimethylammonium-butanoyl)-piperazine-1-carbonyl]-cyclopentyl}-2,4-dichloro-3-(2,4-dimethyl-quinolin-8-yloxymethyl)-benzenesulfonamide bis trifluoroacetate] | 0.631 |
| Cc1cc(C)c2cccc(OCc3c(Cl)ccc(S(=O)(=O)NC4(C(=O)N5CCN(C(=N)NCCNCCCN)CC5)CCCC4)c3Cl)c2n1 [Example 96, N-[2-(3-Amino-propylamino)-ethyl]-4-{1-[2,4-dichloro-3-(2,4-dimethyl-quinolin-8-yloxymethyl)-benzenesulfonylamino]-cyclopentanecarbonyl}-piperazine-1-carboxamidine bis trifluoroacetate] | 0.794 |
| Cc1cc(C)c2cccc(OCc3c(Cl)ccc(S(=O)(=O)NC4(C(=O)N5CCN(C[C@H](N)CCCCN)CC5)CCCC4)c3Cl)c2n1 [Example 98, 2,4-Dichloro-N-{1-[4-(2(R),6-diamino-hexyl)-piperazine-1-carbonyl]-cyclopentyl}-3-(2,4-dimethyl-quinolin-8-yloxymethyl)-benzenesulfonamide tetra trifluoroacetate] | 0.631 |
| Cc1cc(C)c2cccc(OCc3c(Cl)ccc(S(=O)(=O)NC4(C(=O)N5CCN(CCN6CCNCC6)CC5)CCCC4)c3Cl)c2n1 [Example 100, 2,4-Dichloro-3-(2,4-dimethyl-quinolin-8-yloxymethyl)-N-{1-[4-(2-piperazin-1-yl-ethyl)-piperazine-1-carbonyl]-cyclopentyl}-benzenesulfonamide tetra trifluoroacetate] | 0.398 |
| CNCCCCCNCC1CCN(C(=O)C2(NS(=O)(=O)c3ccc(Cl)c(COc4cccc5c(C)cc(C)nc45)c3Cl)CCCC2)CC1 [Example 106, 2,4-Dichloro-3-(2,4-dimethyl-quinolin-8-yloxymethyl)-N-(1-{4-[(5-methylamino-pentylamino)-methyl]-piperidine-1-carbonyl}-cyclopentyl)-benzenesulfonamide tris trifluoroacetate] | 0.398 |
